According to US6521641B1, “Male anti-fertility agents” (Allergan, Inc., priority 1998, dated 2003):
Like-named read-outs stand apart in the source and are kept apart here.

How the values were obtained:
Sprague-Dawley rats = assay: Topical treatment of Sprague-Dawley rats with AGN 194310 cream for 28 days (Example 2); format: in vivo, rat
Method: Twenty-nine male and twenty-nine female Sprague-Dawley rats, approximately 7 weeks old were used for the study. Five rats/sex/group were designated as Main Study animals: (vehicle control, 0.025 mg/kg/day AGN 194310, and 0.25 mg/kg/day AGN 194310), and 7/sex/group designated as toxicokinetic satellite animals (0.025 mg/kg/day AGN 194310 and 0.25 mg/kglday AGN 194310). No “vehicle alone” control group was made for the toxicokinetic satellite animals. In this study there was no Recovery group.
The animals' backs were maintained shaven during the course of the study for application of the topical cream. The animals were treated daily with a topical formulation containing either AGN 194310 vehicle cream alone, 0.01% (w/w) AGN 194310 in the same vehicle cream, or 0.1% (w/w) AGN 194310 in the same vehicle cream. The vehicle cream consisted of a mixture of the following ingredients:
Daily dosages were calculated using the most recently obtained body weight, as shown below. The test or control creams were applied for 28 consecutive days to the shaved back of each animal in an area approximately equal to 35.5 cm^2. Application was made using a repeat pipettor, and the drug gently massaged into the skin. An Elizabethan collar was affixed around each animal's neck for a period of about 6 hours following treatment to prevent removal or systemic ingestion of the drug.
Blood was drawn at day 29 via cardiac puncture, as described in Example 1. The animals were first permitted to fast for approximately 16 hours prior to blood collection. Satellite animals were sacrificed on day 28.

[1] = Toxicokinetics of oral AGN 194310 in rats (drug in blood by GC/MS); format: in vivo, rat; conditions: for Tmax / Cmax / AUC(0-t): both sexes, Sprague-Dawley, rat, whole blood; for Tmax: Day 22; for Cmax / AUC(0-t): po; for Cmax: N = 8; for AUC(0-t): N = 8, read-out: AUC24 hr
Method: The concentration of drug in the blood was determined from blood drawn from the retro-orbital sinus of the right eye on Day 7 of the study as follows: for rats in groups 7 through 9 (4/sex/group/timepoint, with each animal being bled no more than 3 times), blood (approximately 1 ml) was drawn prior to being given the drug, and at approximately 2, 6, 8, 12 and 24 hours post-dosing. The vehicle-treated rats (group 6) were bled at approximately 8 and 24 hours post-dosing. The rats in groups 6 through 9 were similarly bled on Day 22 of the study, then euthanized. All blood was drawn into tubes containing EDTA to prevent coagulation, and placed on ice prior to analysis. The blood was assayed for the presence of AGN 194310 by gas chromatography/mass spectrometry.
AGN 194310 was systemically absorbed following oral administration to rats and approached the peak concentration in plasma (Cmax) at 2 or 6 hours post dosing (Tmax).

In the case of CCc1ccc(C2=CC(C)(C)Sc3ccc(C#Cc4ccc(C(=O)O)cc4)cc32)cc1 [AGN 194310, 4-[[4-(4-ethylphenyl)-2,2-dimethyl-(2H)-thiochromen-6-yl]-ethynyl]-benzoic acid], the “germ cells in the head of the epididymis” value (Sprague-Dawley rats; majority of males displaying spermatogenic arrest, topical) is reported as “notable reduction of germ cells”, the “hematological differences versus control rats” value (Sprague-Dawley rats; male rats in all groups, topical) is reported as “no statistically significant hematological differences” and the treatment-related skin irritation (Sprague-Dawley rats; rats, topical skin application, 0.025 and 0.25 mg/kg/day, 28 days) is reported as “did not result in any evidence of treatment-related skin irritation”. The “clinical observations, body weight, food consumption, gross pathology” value (Sprague-Dawley rats; rats, topical, 0.025 and 0.25 mg/kg/day, 28 days) was “No treatment-related clinical observations, differences in body weight, differences in food consumption, or in gross pathology were observed”, the “male rats with atrophy of the seminiferous tubules with concomitant spermatogenic arrest” value (Sprague-Dawley rats; topical 0.025 mg/kg/day, 28 days) was 0 out of 5 and the “male rats with atrophy of the seminiferous tubules with concomitant spermatogenic arrest” value (Sprague-Dawley rats; topical 0.25 mg/kg/day, 28 days) was 5 out of 5. The “systemic exposure to AGN 194310” value ([1]; across the concentrations of AGN 194310) was “dose dependent increase”, the Tmax ([1]; 0.005 mg/kg/day) was 2 h and the Tmax ([1]; 0.015 mg/kg/day) was 2 h. For the same compound, the Tmax ([1]; 0.15 mg/kg/day) was 6 h, the Cmax ([1]; 0.005 mg/kg/day, 0.001% AGN 194310 (0.005 mg/kg/day), Day 7, mean ± SD) was 1.83 ± 0.55 ng/mL and the Cmax ([1]; 0.005 mg/kg/day, 0.001% AGN 194310 (0.005 mg/kg/day), Day 22, mean ± SD) was 1.97 ± 0.75 ng/mL. For the same compound, the AUC(0-t) ([1]; 0.005 mg/kg/day, Day 7, mean ± SEM) was 19.6 ± 1.1 ng·h/mL, the AUC(0-t) ([1]; 0.005 mg/kg/day, Day 22, mean ± SEM) was 20.8 ± 1.1 ng·h/mL and the Cmax ([1]; 0.015 mg/kg/day, 0.003% AGN 194310 (0.015 mg/kg/day), Day 7, mean ± SD) was 4.73 ± 1.2 ng/mL. For the same compound, the Cmax ([1]; 0.015 mg/kg/day, 0.003% AGN 194310 (0.015 mg/kg/day), Day 22, mean ± SD) was 5.32 ± 1.56 ng/mL, the AUC(0-t) ([1]; 0.015 mg/kg/day, Day 7, mean ± SEM) was 57.6 ± 2.6 ng·h/mL and the AUC(0-t) ([1]; 0.015 mg/kg/day, Day 22, mean ± SEM) was 63.6 ± 2.7 ng·h/mL. For the same compound, the Cmax ([1]; 0.15 mg/kg/day, 0.01% AGN 194310 (0.15 mg/kg/day), Day 7, mean ± SD) was 43.1 ± 7.2 ng/mL, the Cmax ([1]; 0.15 mg/kg/day, 0.01% AGN 194310 (0.15 mg/kg/day), Day 22, mean ± SD) was 42.4 ± 9.3 ng/mL and the AUC(0-t) ([1]; 0.15 mg/kg/day, Day 7, mean ± SEM) was 668 ± 24 ng·h/mL. It also gave an AUC(0-t) ([1]; 0.15 mg/kg/day, Day 22, mean ± SEM) of 675 ± 25 ng·h/mL.
